Results from patent US5244795A, “Processes for preparing cholesterol lowering compounds” (Merck & Co., Inc., priority 1992, dated 1993).

System: Aspergillus niger
Assay: FISP disc diffusion assay
Type: cell-based
Set-up: key to zone quality qualifier: F: clear zone, fuzzy edges; S: slightly hazy zone (some growth observed throughout zone); H: hazy zone (considerable growth observed throughout zone); V: very hazy zone (zone of inhibition is barely discernable); R: zone displays a ring of resistant growth; no qualifier: clear zone throughout, sharp edges
Conditions: 250 μg/ml in CH2Cl2
Source text: The FISP assay employs disc diffusion susceptibility testing methods to generate a spectrum of activity against a panel of representative yeasts, filamentous fungi and bacteria.
The filamentous fungi used in the assay were Penicillium sp. Aspergillus niger, Trichoderma sp., Phoma sp., Trichoderma lignorum, Fusarium oxysporum, Ustilago maydis, Ceratocystis ulmi, Alternaria soloni, Verticillium serrae, Botrytis allii, Scopulariopsis communis, Cephalosporium sp., Cercospora beticola, Rhizomucor miehei, Aspergillus flavus and Aspergillus fumigatus.
For carrying out the assay, seeded assay plates are prepared in the following manner according to the type of assay strain.
Inocula for filamentous fungi are prepared by scraping the surface of stock plates maintained on potato dextrose agar with a moistened sterile dacron swab. The spores and mycelia are then suspended in 10 milliliters of sterile potato dextrose broth and adjusted to 65 percent transmission at 660 nm. […]
Following incubation, the inhibition zones are measured and recorded. […]
FISP data is reported as the diameter (in mm.) of the zone of inhibition of growth in agar diffusion assays. The zone is determined by measuring growth that differs from the background lawn. […]

CC(/C=C/C=C(\C)C(O)C(C)C(=O)O[C@H]1C[C@H](C)C=C2C=C[C@@]3(C)O[C@@H](O)CC(=O)[C@]3(C)[C@H]21)=C\C=C\C(=O)O (some centres unmarked) [Compound A]
zone quality qualifier: H | zone of inhibition at 250 µg/mL (Aspergillus niger, read-out: diameter of the zone of inhibition of growth): 0 mm
